How the values were obtained:
[1] = human
[2] = human; remark: listed apart in the source
[3] = human, serum
[4] = human; remark: listed apart in the source
[5] = human; remark: listed apart in the source
[6] = human; remark: listed apart in the source
[7] = human; remark: listed apart in the source
[8] = human; remark: listed apart in the source
[9] = human; remark: listed apart in the source
[10] = Highest frequency of acute liver toxicity observed during clinical trials, expressed as a percentage. [column '% AIGUE' in source]; conditions: human
[11] = human, serum; remark: listed apart in the source
[12] = human; remark: listed apart in the source
[13] = human, serum, 4383 h
[14] = Highest frequency of moderate liver toxicity observed during clinical trials, expressed as a percentage. [column '% BIOL' in source]; conditions: human
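Throughout, for Hepatotoxicity (association with vascular disease): count of indexed literature references reporting vascular liver injury in humans, e.g. peliosis hepatitis, hepatic veno-occlusive disease or Budd-Chiari syndrome.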
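Throughout, for Hepatotoxicity (benign tumour): value is a count of indexed literature references citing a benign tumour confirmed by histopathology.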
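Throughout, for Hepatotoxicity (choleostasis): human cholestatic liver injury, shown by histopathology or by peak ALT or AST elevation over alkaline phosphatase ratio below 2, value counts indexed literature reports.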
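Throughout, for Hepatotoxicity (chronic liver disease): chronic liver injury confirmed by histopathology or persistently raised serum aminotransferase activity beyond 6 months, value given as the count of indexed literature references.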
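Throughout, for Hepatotoxicity (cirrhosis): value is a count of indexed literature references reporting cirrhosis confirmed by histopathology.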
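Throughout, for Hepatotoxicity (cytolytic): human cytolytic liver injury, shown by histopathology or by a ratio above 5 of peak ALT or AST elevation to alkaline phosphatase elevation, value counts indexed references.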
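Throughout, for Hepatotoxicity (granulomatous hepatitis): value is a count of indexed literature references reporting granulomatous liver disease confirmed by histopathology.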
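Throughout, for Hepatotoxicity (malignant tumour): malignant tumour confirmed by histopathology, value gives the count of indexed literature references reporting it.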
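Throughout, for Hepatotoxicity (severe hepatitis): human clinical data: severe hepatitis, meaning potentially life-threatening liver failure or clinically observed cases, the value counts how many indexed literature references report it.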
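Throughout, for Hepatotoxicity (steatosis): steatosis confirmed by histopathology, value is the count of indexed references.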

SMILES	Hepatotoxicity (granulomatous hepatitis) [1]	Hepatotoxicity (association with vascular disease) [2]	Hepatotoxicity (acute) [3]	Hepatotoxicity (cirrhosis) [4]	Hepatotoxicity (cytolytic) [5]	Hepatotoxicity (choleostasis) [6]	Hepatotoxicity (malignant tumour) [7]	Hepatotoxicity (steatosis) [8]	Hepatotoxicity (benign tumour) [9]	Hepatotoxicity (acute) [10] [%]	Hepatotoxicity (moderate) [11]	Hepatotoxicity (severe hepatitis) [12]	Hepatotoxicity (chronic liver disease) [13]	Hepatotoxicity (moderate) [14] [%]	Hepatotoxicity (acute) ([10]; Liver) [%]	Hepatotoxicity (severe hepatitis) ([12]; Liver)	Hepatotoxicity (moderate) ([14]; Liver) [%]	Hepatotoxicity (granulomatous hepatitis) ([1]; Liver)	Hepatotoxicity (cytolytic) ([5]; Liver)	Hepatotoxicity (choleostasis) ([6]; Liver)
CC1CCCC(C)N1CCCC(O)(c1ccccc1)c1ccccn1 (stereo not drawn) [PIRMENOL]	0	0	0	0	0	0	0	0	0	0	1	0	0	5.3						
NCCCNc1ccc2c3c(nn2CCNCCO)-c2c(O)ccc(O)c2C(=O)c13 [PIROXANTRONE]	0	0	0	0	0	0	0	0	0	0	4	0	0	9.1						
CCc1[nH]c(=O)[nH]c1C(=O)c1ccncc1 [PIROXIMONE]	0	0	1	0	0	0	0	0	0	0	0	0	0	0						
O=C(O)C[C@H](O)C[C@H](O)/C=C/c1c(C2CC2)nc2ccccc2c1-c1ccc(F)cc1 [PITAVASTATIN]	0	0	0	0	0	0	0	0	0		1		0		0	0	1.7			
CC(C)(C)C(=O)OCOC(=O)[C@@H]1N2C(=O)[C@@H](NC(=O)[C@H](N)c3ccccc3)[C@H]2SC1(C)C [PIVAMPICILLIN]	0	0	1	0	1	0	0	0	0	0	0	0	0	0						
CC(C)(Oc1ccc(Cl)cc1)C(=O)NC(=O)NCN1CCOCC1 [PLAFIBRIDE]	0	0	0	0	0	0	0	0	0	0	1	0	0	20						
CN1C(CSCC(F)(F)F)Nc2cc(Cl)c(S(N)(=O)=O)cc2S1(=O)=O (stereo not drawn) [POLYTHIAZIDE]	0	0	1	0	1	1	0	0	0	0	0	0	0	0						
CCCN[C@H]1CCc2nc(N)sc2C1 [PRAMIPEXOLE]		0	0	0			0	0	0		1		0		0	0	7.1	0	0	0
COc1cc2nc(N3CCN(C(=O)c4ccco4)CC3)nc(N)c2cc1OC [PRAZOSIN]	0	0	1	0	0	1	0	0	0		0		0		0.2	0	0			
CC(C)(Sc1cc(C(C)(C)C)c(O)c(C(C)(C)C)c1)Sc1cc(C(C)(C)C)c(O)c(C(C)(C)C)c1 [PROBUCOL]	0	0	0	0	0	0	0	0	0	0	2	0	0	0						
CC(CN1c2ccccc2Sc2ccccc21)N(C)C (stereo not drawn) [PROMETHAZINE]	0	0	2	0	0	0	0	0	0	0	0	0	0	0						
CCN(CC)CC(=O)Oc1ccc(NC(C)=O)cc1 [PROPACETAMOL]	0	0	0	0	0	0	0	0	0	0	1	0	0	2.1						

— ChEMBL document CHEMBL3137667, “[Drug-induced liver injury; fourteenth updated edition of the bibliographic database of liver injuries and related drugs]” (Gastroenterol Clin Biol, 2004)
